Assay results as given in patent US6972296B2, “Carboxylic acid derivatives that inhibit the binding of integrins to their receptors” (Encysive Pharmaceuticals Inc., priority 1999, dated 2005).

Target: T1, α4β1 integrin (Homo sapiens, UniProt P05556+P13612)
T1 construct: endogenous in cells; host or cells: Ramos cells
Experiment: Adhesion of calcein-labeled Ramos cells to CS1 (fibronectin) peptide conjugated ovalbumin
Type: cell-based
Settings: Ramos cell adhesion to CS1 conjugated ovalbumin
Method in brief: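 Plates bearing CS1 fibronectin peptide coupled to ovalbumin (0.5 μg/ml coat, 3% BSA block) received calcein-labelled Ramos cells plus compound (100 μM stated) for 30 min at 37 °C. Buffer was TBS pH 7.5 with 1 mM Mg2+, Ca2+, Mn2+; bound cells quantified by fluorescence after lysis; […].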

[1] = Table 5, dose required to give 50% inhibition
[2] = Table 7, dose required to give 50% inhibition

T1 sequence (P13612 34-1032): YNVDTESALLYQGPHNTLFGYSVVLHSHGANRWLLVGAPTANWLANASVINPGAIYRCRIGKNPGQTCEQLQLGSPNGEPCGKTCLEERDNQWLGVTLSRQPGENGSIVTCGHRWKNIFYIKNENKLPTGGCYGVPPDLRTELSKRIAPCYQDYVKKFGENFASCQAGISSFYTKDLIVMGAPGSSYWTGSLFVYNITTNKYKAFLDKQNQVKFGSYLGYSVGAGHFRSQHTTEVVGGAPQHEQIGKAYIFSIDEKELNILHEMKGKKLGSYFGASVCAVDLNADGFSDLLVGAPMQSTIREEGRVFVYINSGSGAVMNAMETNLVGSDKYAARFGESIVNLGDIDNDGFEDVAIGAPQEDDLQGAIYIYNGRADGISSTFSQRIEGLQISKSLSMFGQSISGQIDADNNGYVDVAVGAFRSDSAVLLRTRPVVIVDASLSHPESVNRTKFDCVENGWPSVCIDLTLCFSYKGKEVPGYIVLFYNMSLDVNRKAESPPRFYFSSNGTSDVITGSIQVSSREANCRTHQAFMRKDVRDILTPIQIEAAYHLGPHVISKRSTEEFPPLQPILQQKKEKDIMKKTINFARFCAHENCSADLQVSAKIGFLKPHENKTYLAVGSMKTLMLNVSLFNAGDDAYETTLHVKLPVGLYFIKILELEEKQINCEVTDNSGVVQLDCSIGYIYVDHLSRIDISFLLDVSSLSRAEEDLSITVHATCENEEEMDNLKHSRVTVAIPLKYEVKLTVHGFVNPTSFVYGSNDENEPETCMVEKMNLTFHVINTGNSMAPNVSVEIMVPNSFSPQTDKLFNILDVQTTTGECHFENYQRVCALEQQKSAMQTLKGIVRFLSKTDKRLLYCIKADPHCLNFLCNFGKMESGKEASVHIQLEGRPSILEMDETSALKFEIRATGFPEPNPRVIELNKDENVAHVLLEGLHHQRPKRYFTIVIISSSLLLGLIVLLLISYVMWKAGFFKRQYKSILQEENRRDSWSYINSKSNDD
T1 sequence (P05556 21-798): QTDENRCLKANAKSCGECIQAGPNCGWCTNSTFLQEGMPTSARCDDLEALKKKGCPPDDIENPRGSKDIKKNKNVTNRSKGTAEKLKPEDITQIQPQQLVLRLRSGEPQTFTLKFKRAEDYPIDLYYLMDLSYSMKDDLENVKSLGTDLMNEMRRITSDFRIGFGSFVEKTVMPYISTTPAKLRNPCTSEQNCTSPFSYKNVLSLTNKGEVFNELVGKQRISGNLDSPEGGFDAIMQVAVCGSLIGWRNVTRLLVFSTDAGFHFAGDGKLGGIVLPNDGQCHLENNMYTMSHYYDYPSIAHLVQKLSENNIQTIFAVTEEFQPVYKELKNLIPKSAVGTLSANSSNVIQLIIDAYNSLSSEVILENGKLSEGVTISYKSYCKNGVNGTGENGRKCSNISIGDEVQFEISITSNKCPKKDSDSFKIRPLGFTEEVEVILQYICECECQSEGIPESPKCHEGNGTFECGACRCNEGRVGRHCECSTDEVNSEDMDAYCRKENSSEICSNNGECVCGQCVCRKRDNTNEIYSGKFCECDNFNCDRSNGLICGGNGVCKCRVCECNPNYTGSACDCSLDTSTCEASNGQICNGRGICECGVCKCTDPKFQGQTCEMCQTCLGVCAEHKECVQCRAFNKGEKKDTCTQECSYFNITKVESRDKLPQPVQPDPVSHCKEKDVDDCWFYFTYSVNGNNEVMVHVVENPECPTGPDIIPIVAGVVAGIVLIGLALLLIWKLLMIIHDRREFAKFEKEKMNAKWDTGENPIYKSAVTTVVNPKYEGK

Cc1ccc([C@H](CC(=O)O)NC(=O)Nc2c(O)ccn(Cc3ccc(C(C)(C)C)cc3)c2=O)cc1
IC50 [1]: 30 nM

CCc1cccc([C@H](CC(=O)O)NC(=O)Nc2c(O)ccn(Cc3ccccc3Cl)c2=O)c1
IC50 [1]: 15 nM

Cc1cccc(-c2cccc([C@H](CC(=O)O)NC(=O)Nc3c(O)c(C)cn(Cc4ccccc4Cl)c3=O)c2)c1
IC50 [2]: 18 nM

Cc1ccc([C@H](CC(=O)O)NC(=O)Nc2c(O)c(C)cn([C@@H](C)c3ccccc3)c2=O)cc1
IC50 (Table 6, 30 minutes at 37° C.): 1500 nM

Cc1ccc(Cn2ccc(O)c(NC(=O)N[C@@H](CC(=O)O)c3ccc(C)cc3)c2=O)cc1
IC50 [1]: 25 nM

O=C(O)C[C@H](NC(=O)N[C@H]1CCN(Cc2cccs2)C1=O)c1ccc2c(c1)OCO2 [(3S)-3-(1,3-benzodioxol-5-yl)-3-[({[(3S)-2-oxo-1-(2-thienylmethyl)tetrahydro-1H-pyrrol-3-yl]amino}carbonyl)amino]propanoic acid]
IC50 (Table 2, 30 minutes at 37° C.): 15000 nM

Cn1ccc2cc([C@H](CC(=O)O)NC(=O)Nc3c(O)c4c(n(Cc5ccccc5Cl)c3=O)CCC4)ccc21 [(3S)-3-[({[1-(2-chlorobenzyl)-4-hydroxy-2-oxo-2,5,6,7-tetrahydro-1H-cyclopenta[b]pyridin-3-yl]amino}carbonyl)amino]-3-(1-methyl-1H-indol-5-yl)propanoic acid]
IC50 [2]: 4 nM

Cc1cccc(Cl)c1Cn1c2c(c(O)c(NC(=O)N[C@@H](CC(=O)O)c3ccc4c(c3)CCC4)c1=O)CCC2
IC50 [2]: 10 nM

CS(=O)(=O)Nc1cccc([C@H](CC(=O)O)NC(=O)Nc2c(O)c3c(n(Cc4ccccc4Cl)c2=O)CCC3)c1 [(3S)-3-{[({1-[(2-chlorophenyl)methyl]-4-hydroxy-2-oxo-2,5,6,7-tetrahydro-1H-cyclopenta[b]pyridin-3-yl}amino)carbonyl]amino}-3-{3-[(methylsulfonyl)amino]phenyl}propanoic acid]
IC50 [2]: 3 nM

Cc1ccc([C@H](CC(=O)O)NC(=O)Nc2cccn(Cc3ccccc3C#N)c2=O)cc1
IC50 (Table 4, 30 minutes at 37° C.): 100 nM

Cc1ccc([C@H](CC(=O)O)NC(=O)Nc2c(O)ccn(Cc3c(Cl)cccc3C#N)c2=O)cc1 [(3S)-3-[({[1-(2-chloro-6-cyanobenzyl)-4-hydroxy-2-oxo-1,2-dihydropyridin-3-yl]amino}carbonyl)amino]-3-(4-methylphenyl)propanoic acid]
IC50 [1]: 7 nM

COc1cc([C@H](CC(=O)O)NC(=O)Nc2c(O)c(C)c(C)n(Cc3c(C)cccc3Cl)c2=O)ccc1C
IC50 [1]: 25 nM

Cc1cn(Cc2ccccc2Cl)c(=O)c(NC(=O)N[C@@H](CC(=O)O)c2ccc(OC(F)(F)F)cc2)c1O
IC50 (Table 6, 30 minutes at 37° C.): 70 nM

Cc1ccc([C@H](CC(=O)O)NC(=O)Nc2c(O)ccn(Cc3ccccc3OC(F)F)c2=O)cc1
IC50 [1]: 75 nM

COc1cccc(OC)c1[C@H](CC(=O)O)NC(=O)Nc1cccn(Cc2ccccc2Cl)c1=O
IC50 (Table 4, 30 minutes at 37° C.): 6000 nM

Cc1cccc(Cl)c1Cn1c2c(c(O)c(NC(=O)N[C@@H](CC(=O)O)c3ccccc3)c1=O)CCC2
IC50 [2]: 17 nM

COc1cc(OC)cc([C@H](CC(=O)O)NC(=O)Nc2cccn(Cc3cccs3)c2=O)c1
IC50 (Table 4, 30 minutes at 37° C.): 700 nM

O=C(O)C[C@H](NC(=O)Nc1cccn(Cc2cccc(Cl)c2)c1=O)c1ccc2c(c1)OCO2
IC50 (Table 4, 30 minutes at 37° C.): 800 nM

CCOc1cccc(Cl)c1Cn1cc(C)c(O)c(NC(=O)NC(CC(=O)O)c2ccc3ccccc3c2)c1=O (stereo not shown)
IC50 [2]: 13 nM

COc1ccc([C@H](CC(=O)O)NC(=O)Nc2c(O)c3c(n(Cc4ccccc4Cl)c2=O)CCC3)cc1F
IC50 [2]: 3 nM

Cc1cn(Cc2ccccc2Cl)c(=O)c(NC(=O)NC(CC(=O)O)c2ccc(C3CC3)cc2)c1O (stereo not shown)
IC50 [2]: 35 nM

CCOc1ccc([C@H](CC(=O)O)NC(=O)Nc2c(O)c(C)cn(Cc3c(C)cccc3Cl)c2=O)cc1OCC
IC50 (Table 6, 30 minutes at 37° C.): 3 nM

O=C(O)C[C@H](NC(=O)Nc1c(O)c2c(n(Cc3ccccc3Cl)c1=O)CCC2)c1cc(F)cc(F)c1
IC50 [2]: 7 nM

O=C(O)C[C@H](NC(=O)NC1CCCCN(Cc2ccccc2)C1=O)c1ccc2c(c1)OCO2 (stereo partly shown)
IC50 (Table 4, 30 minutes at 37° C.): 15 nM

CC(C)Oc1cccc([C@H](CC(=O)O)NC(=O)Nc2c(O)ccn(Cc3ccccc3Cl)c2=O)c1 [(3S)-3-[({[1-(2-chlorobenzyl)-4-hydroxy-2-oxo-1,2-dihydropyridin-3-yl]amino}carbonyl)amino]-3-(3-isopropoxyphenyl)propanoic acid]
IC50 (Table 6, 30 minutes at 37° C.): 3 nM

COc1ccc([C@H](CC(=O)O)NC(=O)Nc2c(O)c(C)cn(Cc3ccccc3Cl)c2=O)cc1C
IC50 [2]: 9 nM

COc1cccc([C@H](CC(=O)O)NC(=O)Nc2c(O)c(C)cn(Cc3ccccc3Cl)c2=O)c1
IC50 (Table 6, 30 minutes at 37° C.): 3 nM

Cc1ccc([C@H](CC(=O)O)NC(=O)Nc2cccn(Cc3ccccc3-c3ccccc3)c2=O)cc1
IC50 (Table 4, 30 minutes at 37° C.): 2500 nM

Cc1ccc([C@H](CC(=O)O)NC(=O)Nc2cccn(Cc3c(Cl)cccc3Cl)c2=O)cc1
IC50 (Table 4, 30 minutes at 37° C.): 200 nM

O=C(O)CC(NC(=O)Nc1c(O)ccn(Cc2ccccc2Cl)c1=O)c1cccnc1 (stereo not shown)
IC50 [1]: 50 nM

O=C(O)C[C@H](NC(=O)Nc1c(O)ccn(Cc2ccccc2Cl)c1=O)c1ccc(OC(F)F)cc1
IC50 (Table 6, 30 minutes at 37° C.): 30 nM

CCOc1cc([C@H](CC(=O)O)NC(=O)Nc2c(O)c3c(n(Cc4ccccc4Cl)c2=O)CCC3)ccc1Cl
IC50 [2]: 30 nM

CCOc1cc([C@H](CC(=O)O)NC(=O)Nc2c(O)c3c(n(Cc4c(C)cccc4Cl)c2=O)CCC3)ccc1Cl
IC50 [2]: 25 nM

O=C(O)C[C@H](NC(=O)N[C@H]1CCCCN(Cc2cccs2)C1=O)c1ccc2c(c1)OCO2
IC50 (Table 2, 30 minutes at 37° C.): 15 nM

COc1ccc([C@H](CC(=O)O)NC(=O)Nc2c(O)c(C)cn(Cc3ccccc3Cl)c2=O)cc1 [(3S)-3-[({[1-(2-chlorobenzyl)-4-hydroxy-5-methyl-2-oxo-1,2-dihydropyridin-3-yl]amino}carbonyl)amino]-3-(4-methoxyphenyl)propanoic acid]
IC50 (Table 6, 30 minutes at 37° C.): 4 nM

CCc1cn(Cc2ccccc2Cl)c(=O)c(NC(=O)N[C@@H](CC(=O)O)c2ccc(C)cc2)c1O [(3S)-3-[({[1-(2-chlorobenzyl)-5-ethyl-4-hydroxy-2-oxo-1,2-dihydropyridin-3-yl]amino}carbonyl)amino]-3-(4-methylphenyl)propanoic acid]
IC50 [1]: 10 nM

CCOc1cccc(Cl)c1Cn1c(C)c(C)c(O)c(NC(=O)N[C@@H](CC(=O)O)c2cccc(OC(C)C)c2)c1=O [(3S)-3-[({[1-(2-chloro-6-ethoxybenzyl)-4-hydroxy-5,6-dimethyl-2-oxo-1,2-dihydropyridin-3-yl]amino}carbonyl)amino]-3-(3-isopropoxyphenyl)propanoic acid]
IC50 [2]: 3 nM

CCOc1ccc(Cl)c(Cn2cc(C)c(O)c(NC(=O)N[C@@H](CC(=O)O)c3ccc(C)cc3)c2=O)c1
IC50 [2]: 4 nM

Cc1ccc([C@H](CC(=O)O)NC(=O)Nc2c(O)c3c(n(Cc4c(C)cccc4Cl)c2=O)CCC3)cc1
IC50 (Table 6, 30 minutes at 37° C.): 20 nM

O=C(O)C[C@H](NC(=O)Nc1c(O)ccn(Cc2ccccc2Cl)c1=O)c1cccc(OC2CCCC2)c1
IC50 (Table 6, 30 minutes at 37° C.): 5 nM

CCOc1ncc([C@H](CC(=O)O)NC(=O)Nc2c(O)c3c(n(Cc4ccccc4Cl)c2=O)CCC3)c(OCC)n1
IC50 [2]: 15 nM

CCOc1cccc(Cl)c1Cn1c2c(c(O)c(NC(=O)N[C@@H](CC(=O)O)c3ccccc3)c1=O)CCC2 [(3S)-3-[({[1-(2-chloro-6-ethoxybenzyl)-4-hydroxy-2-oxo-2,5,6,7-tetrahydro-1H-cyclopenta[b]pyridin-3-yl]amino}carbonyl)amino]-3-phenylpropanoic acid]
IC50 [2]: 2 nM

CCOc1cc(OCC)cc([C@H](CC(=O)O)NC(=O)Nc2c(O)ccn(Cc3ccccc3Cl)c2=O)c1
IC50 (Table 6, 30 minutes at 37° C.): 7 nM

COc1ccc([C@H](CC(=O)O)NC(=O)Nc2c(C)ccn(Cc3ccccc3Cl)c2=O)cc1C
IC50 (Table 3, 30 minutes at 37° C.): 15 nM

COc1ccc([C@H](CC(=O)O)NC(=O)Nc2c(O)ccn(Cc3ccccc3Cl)c2=O)cc1 [(3S)-3-{[({1-[(2-chlorophenyl)methyl]-4-hydroxy-2-oxo-1,2-dihydro-3-pyridinyl}amino)carbonyl]amino}-3-[4-(methyloxy)phenyl]propanoic acid]
IC50 (Table 3, 30 minutes at 37° C.): 5 nM

CCOc1cccc([C@H](CC(=O)O)NC(=O)Nc2c(O)c3c(n(Cc4c(Cl)cccc4OCC)c2=O)CCC3)c1
IC50 [2]: 2 nM

O=C(O)C[C@H](NC(=O)Nc1c(O)c2c(n(Cc3ccccc3Cl)c1=O)CCC2)c1cccc(OC(F)(F)C(F)F)c1
IC50 [2]: 4 nM

CCOc1cccc([C@H](CC(=O)O)NC(=O)Nc2c(O)c3ccccc3n(Cc3ccccc3Cl)c2=O)c1
IC50 (Table 6, 30 minutes at 37° C.): 12 nM

O=C(O)C[C@H](NC(=O)N[C@@H]1CCCN(Cc2cccs2)C1=O)c1ccc2c(c1)OCO2
IC50 (Table 2, 30 minutes at 37° C.): 2000 nM

Cc1cn(Cc2ccccc2Cl)c(=O)c(NC(=O)NC(CC(=O)O)c2cccc(N3CCCCC3)c2)c1O (stereo not shown)
IC50 [2]: 22 nM

Cc1ccc([C@H](CC(=O)O)NC(=O)Nc2cccn(Cc3ccc(F)cc3F)c2=O)cc1
IC50 (Table 4, 30 minutes at 37° C.): 1300 nM

COc1ccc2cc(C(CC(=O)O)NC(=O)Nc3c(O)c(C)cn(Cc4c(C)cccc4Cl)c3=O)ccc2c1 (stereo not shown)
IC50 (Table 6, 30 minutes at 37° C.): 35 nM

O=C(O)C[C@H](NC(=O)Nc1c(O)ccn(Cc2ccccc2Cl)c1=O)c1cccc(F)c1
IC50 (Table 3, 30 minutes at 37° C.): 40 nM

COc1cccc(Cl)c1Cn1cc(C)c(O)c(NC(=O)N[C@@H](CC(=O)O)c2ccc(C)c(C)c2)c1=O
IC50 (Table 6, 30 minutes at 37° C.): 3 nM

COc1cc(OC)cc([C@H](CC(=O)O)NC(=O)Nc2c(O)ccn(Cc3ccccc3Cl)c2=O)c1 [(3S)-3-[3,5-bis(methyloxy)phenyl]-3-{[({1-[(2-chlorophenyl)methyl]-4-hydroxy-2-oxo-1,2-dihydro-3-pyridinyl}amino)carbonyl]amino}propanoic acid]
IC50 (Table 3, 30 minutes at 37° C.): 3 nM

O=C(O)C[C@H](NC(=O)Nc1c(O)c2c(n(Cc3ccccc3Cl)c1=O)CCC2)c1cccc(O)c1
IC50 [2]: 8 nM

CSc1ccccc1Cn1ccc(O)c(NC(=O)N[C@@H](CC(=O)O)c2ccc(C)cc2)c1=O
IC50 [1]: 20 nM

CCOc1ccc([C@H](CC(=O)O)NC(=O)Nc2c(O)c(C)cn(Cc3ccccc3Cl)c2=O)cc1OCC [(3S)-3-[({[1-(2-chlorobenzyl)-4-hydroxy-5-methyl-2-oxo-1,2-dihydropyridin-3-yl]amino}carbonyl)amino]-3-(3,4-diethoxyphenyl)propanoic acid]
IC50 [1]: 0.6 nM
